These results are taken from PMC6430685 (Nature chemical biology, 2019).

The assay deals with BAX (Homo sapiens, UniProt Q07812). In kind it is biochemical.
Sequence of BAX (Q07812 whole entry): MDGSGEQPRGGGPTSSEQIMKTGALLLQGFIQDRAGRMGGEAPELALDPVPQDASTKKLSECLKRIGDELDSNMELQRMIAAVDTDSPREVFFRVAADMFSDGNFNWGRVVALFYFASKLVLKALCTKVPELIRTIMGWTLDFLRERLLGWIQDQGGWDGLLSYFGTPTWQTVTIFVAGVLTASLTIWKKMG

Turning to `OC(CN1CCNCC1)Cn1c2ccccc2c2ccccc21` (stereo not shown) [BAI3], the “fold lower activity compared to BAI1” value was ~ 7 fold.
